We go through nine molecules from PMC11898488, “A2A Adenosine Receptor Antagonists and Their Efficacy in Rat Models of Parkinson’s Disease” (Cells, 2025).

The target of assay [1] is T1, human A1AR (Homo sapiens, UniProt P30542).
T1 construct: expressed in transfected cells; host or cells: CHO cells, crude membrane fractions
T1 sequence (P30542 1-326): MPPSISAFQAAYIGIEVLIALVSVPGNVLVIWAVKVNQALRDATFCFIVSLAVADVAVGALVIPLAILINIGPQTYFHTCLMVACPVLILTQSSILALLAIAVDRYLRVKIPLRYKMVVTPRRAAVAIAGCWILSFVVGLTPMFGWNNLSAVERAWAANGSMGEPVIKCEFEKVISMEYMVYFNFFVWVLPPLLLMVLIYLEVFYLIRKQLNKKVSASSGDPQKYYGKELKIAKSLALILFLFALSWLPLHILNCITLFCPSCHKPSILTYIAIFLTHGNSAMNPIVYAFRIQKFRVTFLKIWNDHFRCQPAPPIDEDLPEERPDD
Put plainly: Radioligand binding, displacement of [3H]CCPA at human A1AR in CHO cells. The settings on record: for Ki: [3H]-CCPA displacement, geometric mean with 95% confidence limits, read-out: Ki A1. Here is the method: (§1) The radioligand binding experiments were carried out exactly as described previously. For A1AR binding, 1 nM [^3H]CCPA was used as a radioligand, whereas 30 and 10 nM [^3H]NECA were used for A2A and A3 ARs, respectively. Nonspecific binding was determined in the presence of 1 mM theophylline (A1AR) or […] R-PIA (A2A and A3 ARs). Ki values were calculated from competition curves by nonlinear curve fitting with the program SCTFIT [31].
(§2) CHO cells stably transfected with human ARs were grown adherently and maintained in Dulbecco’s Modified Eagles Medium with nutrient mixture F12 (DMEM/F12) without nucleosides, containing 10% fetal calf serum, penicillin (100 U/mL), streptomycin (100 μg/mL), L-glutamine (2 mM), and Geneticin (G-418, 0.2 mg/mL) at 37 °C in 5% CO2/95% air, as described earlier. For radioligand binding studies and measurement of adenylyl cyclase activity, crude membrane fractions were prepared from fresh or frozen cells with two different protocols described earlier. The determination of adenylyl cyclase activity followed the procedure described earlier. IC50 values for the inhibition of adenylyl cyclase stimulated (in the case of A2BAR) with 5 μM NECA were calculated with the Hill equation and converted to Ki values with the Cheng and Prusoff equation [32].
(§3) [^3H]CCPA (2-chloro-N^6-cyclopentylAdo) and [^3H]NECA (5′-N-ethylcarboxamidoAdo) were used as specific radioligands at A1ARand A2A / A3 ARs, respectively. Furthermore, the ability of the same compounds to inhibit NECA-stimulated adenylyl cyclase activity was evaluated at the A2BAR subtype. The results of the binding studies (A1, A2A, and A3 ARs) and functional data (A2BAR) are reported in Table 1 as Ki or IC50 values in nM, together with the data on the reference compounds 1–3.
For orientation: In a radioligand displacement assay an active substance lowers the binding of a labelled ligand.

Assay [2] deals with T2, human A2AAR (Homo sapiens, UniProt P29274).
T2 construct: expressed in transfected cells; host or cells: CHO cells, crude membrane fractions
T2 sequence (P29274 whole entry): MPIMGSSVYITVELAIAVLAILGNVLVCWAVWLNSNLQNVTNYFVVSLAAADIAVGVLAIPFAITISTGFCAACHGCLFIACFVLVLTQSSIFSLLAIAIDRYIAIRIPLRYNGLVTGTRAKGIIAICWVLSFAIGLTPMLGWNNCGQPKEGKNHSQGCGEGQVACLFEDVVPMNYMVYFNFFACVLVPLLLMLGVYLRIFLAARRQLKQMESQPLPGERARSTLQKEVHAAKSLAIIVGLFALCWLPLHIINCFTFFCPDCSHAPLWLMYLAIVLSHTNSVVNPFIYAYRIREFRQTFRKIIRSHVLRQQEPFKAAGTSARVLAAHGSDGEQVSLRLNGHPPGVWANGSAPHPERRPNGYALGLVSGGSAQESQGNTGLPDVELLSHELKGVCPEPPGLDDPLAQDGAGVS
Description: Radioligand binding, displacement of [3H]NECA at human A2AAR in CHO cells. The settings on record: for Ki: [3H]-NECA displacement, geometric mean with 95% confidence limits, read-out: Ki A2A; for Selectivity A1/A2A / Selectivity A3/A2A: ratio of Ki values at human ARs. Here is the method: as §1, §2, §3

Assay [3] has as its target T3, human A3AR (Homo sapiens, UniProt P0DMS8).
T3 construct: expressed in transfected cells; host or cells: CHO cells, crude membrane fractions
T3 sequence (P0DMS8 1-318): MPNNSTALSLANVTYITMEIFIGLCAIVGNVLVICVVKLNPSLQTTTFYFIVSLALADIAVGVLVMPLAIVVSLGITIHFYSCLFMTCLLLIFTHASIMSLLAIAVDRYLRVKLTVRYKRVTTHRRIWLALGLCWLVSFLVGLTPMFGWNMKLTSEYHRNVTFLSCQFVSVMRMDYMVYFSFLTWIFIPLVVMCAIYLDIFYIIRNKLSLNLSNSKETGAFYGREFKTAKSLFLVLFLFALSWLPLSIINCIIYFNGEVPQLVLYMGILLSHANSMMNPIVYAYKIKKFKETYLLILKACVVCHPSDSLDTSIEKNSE
Description: Radioligand binding, displacement of [3H]NECA at human A3AR in CHO cells. The settings on record: [3H]-NECA displacement, read-out: Ki A3. Here is the method: as §1, §2, §3

Assay [4] concerns the target T4, human A2BAR (Homo sapiens, UniProt P29275).
T4 construct: expressed in transfected cells; host or cells: CHO cells, crude membrane fractions
T4 sequence (P29275 1-332): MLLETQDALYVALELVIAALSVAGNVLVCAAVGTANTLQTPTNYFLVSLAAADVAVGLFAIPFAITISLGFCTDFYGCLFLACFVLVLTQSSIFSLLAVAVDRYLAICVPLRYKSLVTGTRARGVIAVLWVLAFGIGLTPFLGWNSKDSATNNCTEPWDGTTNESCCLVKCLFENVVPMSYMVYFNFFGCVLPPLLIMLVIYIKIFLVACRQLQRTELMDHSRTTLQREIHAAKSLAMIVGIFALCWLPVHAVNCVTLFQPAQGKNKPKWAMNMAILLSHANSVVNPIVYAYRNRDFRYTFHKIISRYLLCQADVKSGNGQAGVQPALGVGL
Put plainly: Inhibition of NECA-stimulated adenylyl cyclase activity at human A2BAR. The assay is classed as biochemical. The settings on record: inhibition of NECA-stimulated AC activity, CHO cells expressing human A2BAR, read-out: IC50 A2B. The method, then:
as §2, §3

Assay [5] has as its target T1, human A1AR. The settings on record: [3H]-CCPA displacement, human A1AR in CHO cells; geometric mean with 95% confidence limits; read-out: Ki A1; cited from earlier work.
Assay [6] addresses T2, human A2AAR. The settings on record: cited from earlier work.
The target of assay [7] is T3, human A3AR. The settings on record: [3H]-NECA displacement, human A3AR in CHO cells; geometric mean with 95% confidence limits; read-out: Ki A3; cited from earlier work.
The target of assay [8] is T4, human A2BAR. The settings on record: inhibition of NECA-stimulated AC activity, CHO cells expressing human A2BAR; geometric mean with 95% confidence limits; read-out: IC50 A2B; cited from earlier work.
[9] abbreviates: geometric mean with 95% confidence limits.
[10] abbreviates: [3H]-NECA displacement, human A2AAR in CHO cells, geometric mean with 95% confidence limits, read-out: Ki A2A.

The structures appear in SMILES notation. Where two headings read alike, the source gives them in different places.

As to `CCn1cnc2c(N)nc(OCCc3ccc(OC)cc3)nc21` [Compound 9, 9-ethyl-2-(4-methoxyphenyl)ethoxyadenine], the inhibition constant Ki (in general, the equilibrium dissociation constant of an inhibitor or competing ligand from its target) came to 1.99 µM in assay [1], 0.655 µM in assay [2] (human A2AAR in CHO cells) and 12.3 µM in assay [3] (setting [9]). Besides, in assay [2], the “Selectivity A1/A2A” value is 3.0. Further, the “Selectivity A3/A2A” value in assay [2] was found to be 19. Moreover, the half-inhibitory concentration (IC50) – broadly, the concentration that inhibits the measured activity by half – in assay [4] (setting [9]) was found to be 63.7 µM.
Regarding `CCn1c(C2CCCO2)nc2c(N)nc(OCCc3ccccc3)nc21` (centres unmarked) [Compound 7], the values for the inhibitory constant (Ki) in assay [1], in assay [2] (human A2AAR in CHO cells) and in assay [3] (setting [9]) were 0.509 µM, 0.081 µM and 1.45 µM, respectively. For the same molecule, the “Selectivity A1/A2A” value in assay [2] is recorded as 6.3. Moreover, the “Selectivity A3/A2A” value in assay [2] is reported as 18. Besides, the IC50 in assay [4] (setting [9]) was determined as 38.9 µM.
For `CCn1cnc2c(N)nc(Oc3ccc(CCO)cc3)nc21` [Compound 13, 2-(4-((6-amino-9-ethyl-9H-purin-2-yl)oxy)phenyl)ethan-1-ol], in assay [1], the “Affinity at A1 AR, in words” value is recorded as “µM affinity” and the Ki was 22.9 µM. Moreover, in assay [2] (human A2AAR in CHO cells), the Ki stood at 7.08 µM and the “Affinity at A2A AR, in words” value is on record as “µM affinity”. Further, the “Selectivity A1/A2A” value in assay [2] was determined as 3.2. In addition, the Ki in assay [3] (bound given in µM) was above 100 µM. The IC50 in assay [4] (bound given in µM) was above 100 µM.
As for `CCn1c(-c2ccco2)nc2c(N)nc(OCCc3ccccc3)nc21` [Compound 2, 9-ethyl-8-furyl-2-phenetoxyadenine], in assay [2], the “Selectivity A1/A2A” value is reported as 2.6. In addition, the “Selectivity A3/A2A” value in assay [2] was 7.3. Also, the Ki is 0.0058 µM in assay [5], 0.0022 µM in assay [6] (setting [10]) and 0.016 µM in assay [7]. Further, the IC50 in assay [8] was 0.521 µM.
`CCn1c(-c2cccs2)nc2c(N)nc(OCCc3ccccc3)nc21` [Compound 6]: the results for the Ki in assay [1], in assay [2] (human A2AAR in CHO cells) and in assay [3] (setting [9]) were 0.021 µM, 0.0077 µM and 0.027 µM, respectively. Moreover, the “Selectivity A1/A2A” value in assay [2] was found to be 2.7. Also, the “Selectivity A3/A2A” value in assay [2] came out at 3.5. The IC50 in assay [4] (setting [9]) is 4.99 µM.
As for `CCn1c(-c2ccco2)nc2c(N)nc(OCCc3ccc(OC)cc3)nc21` [Compound 11], the Ki worked out at 0.039 µM in assay [1], 0.0071 µM in assay [2] (human A2AAR in CHO cells) and 0.073 µM in assay [3] (setting [9]). In assay [2], the “Selectivity A1/A2A” value was found to be 5.5. The “Selectivity A3/A2A” value in assay [2] is 10. In assay [4] (bound given in µM), the IC50 was above 100 µM.
As for `CCn1cnc2c(N)nc(OCCc3ccccc3)nc21` [Compound 3, 9-ethyl-2-phenethoxyadenine], the “Selectivity A1/A2A” value in assay [2] is recorded as 1.4. The “Selectivity A3/A2A” value in assay [2] was 59. Further, the Ki in assay [5] is 0.17 µM; in assay [6] (setting [10]) it was 0.12 µM; in assay [7], 7.15 µM. The IC50 in assay [8] is 45.8 µM.
`CCn1c(Br)nc2c(N)nc(OCCc3ccc(OC)cc3)nc21` [Compound 10, 8-bromo-9-ethyl-2-(4-methoxyphenethoxy)-9H-purin-6-amine]: the Ki turned out to be 0.197 µM in assay [1], 0.028 µM in assay [2] (human A2AAR in CHO cells) and 4.06 µM in assay [3] (setting [9]). For the same molecule, the “Selectivity A1/A2A” value in assay [2] is given as 7.1. Moreover, the “Selectivity A3/A2A” value in assay [2] is 146. Further, the IC50 in assay [4] (setting [9]) turned out to be 9.19 µM.
Consider `CCOc1nc2c(N)ncnc2n1CC` [ANR 94, 9-ethyl-8-ethoxyadenine, reference compound], for which, in assay [6] (read-out: Ki at the human A2AAR), the Ki is 0.046 µM.
